molecular target: T1, human full-length MKNK1 (Homo sapiens, UniProt Q9BUB5, T385D); assay: MKNK1 kinase high ATP assay (TR-FRET); type: biochemical; details: high ATP (2 mM final), 15 min preincubation with enzyme, GST-MKNK1 (T344D)
T1 construct: GST (N); purchased Carna Biosciences 02-145; host or cells: insect cells (baculovirus expression system)
Summary of the method: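 GST-tagged human full-length MKNK1 (T344D), insect-cell expressed, preincubated 15 min at 22 °C with compound, then reacted 30 min at 22 °C with 2 mM ATP and 0.06 μM biotinylated peptide (final) in HEPES pH 7.5. Phospho-peptide detected by TR-FRET (665/620 nm ratio) after EDTA stop; normalised to no-inhibitor and no-enzyme controls.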

T1 sequence (Q9BUB5 1-424 isoform Q9BUB5-2 T344D): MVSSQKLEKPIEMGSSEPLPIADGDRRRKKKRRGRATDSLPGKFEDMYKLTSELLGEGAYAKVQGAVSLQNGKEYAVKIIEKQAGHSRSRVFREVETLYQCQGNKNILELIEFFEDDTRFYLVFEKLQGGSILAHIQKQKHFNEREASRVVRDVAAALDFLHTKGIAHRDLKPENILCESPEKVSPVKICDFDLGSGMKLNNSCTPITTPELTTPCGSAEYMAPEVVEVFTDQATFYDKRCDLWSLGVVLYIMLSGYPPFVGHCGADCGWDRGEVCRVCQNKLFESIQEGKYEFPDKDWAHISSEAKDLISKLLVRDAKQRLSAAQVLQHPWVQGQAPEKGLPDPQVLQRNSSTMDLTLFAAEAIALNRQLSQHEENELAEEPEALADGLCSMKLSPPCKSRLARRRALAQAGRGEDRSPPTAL

SMILES | IC50
CC(C)(C)OC(=O)N1CCc2c(sc3ncnc(Nc4ccc5[nH]c(=O)sc5c4)c23)C1 [Example 3, tert-Butyl 4-[(2-oxo-2,3-dihydro-1,3-benzothiazol-6-yl)amino]-5,8-dihydropyrido[4′,3′:4,5]thieno[2,3-d]pyrimidine-7(6H)-carboxylate] | 0.071 µM
CC(C)(C)OC(=O)N1CCc2c(sc3ncnc(Nc4cc5cn[nH]c5cn4)c23)C1 [Example 7, tert-Butyl 4-(1H-pyrazolo[3,4-c]pyridin-5-ylamino)-5,8-dihydropyrido[4′,3′:4,5]thieno[2,3-d]pyrimidine-7(6H)-carboxylate] | 0.079 µM
C[C@@H]1CN(C(=O)N2CCc3c(sc4ncnc(Nc5ccn6nccc6c5)c34)C2)C[C@H](C)O1 [Example 58, [(2R,6S)-2,6-Dimethylmorpholin-4-yl][4-(pyrazolo[1,5-a]pyridin-5-ylamino)-5,8-dihydropyrido[4′,3′:4,5]thieno[2,3-d]pyrimidin-7(6H)-yl]methanone] | 0.061 µM
CS(=O)(=O)N1CCc2c(sc3ncnc(Nc4cnc5[nH]ncc5c4)c23)C1 [Example 40, 7-(Methylsulfonyl)-N-(1H-pyrazolo[3,4-b]pyridin-5-yl)-5,6,7,8-tetrahydropyrido[4′,3′:4,5]thieno[2,3-d]pyrimidin-4-amine] | 0.139 µM
O=C(N1CCOCC1)N1CCc2c(sc3ncnc(Nc4ccc5[nH]ncc5c4)c23)C1 [Example 43, [4-(1H-Indazol-5-ylamino)-5,8-dihydropyrido[4′,3′:4,5]thieno[2,3-d]pyrimidin-7(6H)-yl](morpholin-4-yl)methanone] | 0.048 µM
CS(=O)(=O)N1CCc2c(sc3ncnc(Nc4ccc5[nH]ncc5c4)c23)C1 [Example 38, N-(1H-Indazol-5-yl)-7-(methylsulfonyl)-5,6,7,8-tetrahydropyrido[4′,3′:4,5]thieno[2,3-d]pyrimidin-4-amine] | 0.068 µM
COc1nc2[nH]ncc2cc1Nc1ncnc2sc3c(c12)CCN(C(=O)N(C)C)C3 [Example 65, 4-[(6-Methoxy-1H-pyrazolo[3,4-b]pyridin-5-yl)amino]-N,N-dimethyl-5,8-dihydropyrido[4′,3′:4,5]thieno[2,3-d]pyrimidine-7(6H)-carboxamide] | 0.005 µM
CS(=O)(=O)N1CCc2c(sc3ncnc(Nc4cc5cn[nH]c5cn4)c23)C1 [Example 23, 7-(Methylsulfonyl)-N-(1H-pyrazolo[3,4-c]pyridin-5-yl)-5,6,7,8-tetrahydropyrido[4′,3′:4,5]thieno[2,3-d]pyrimidin-4-amine] | 0.025 µM
CS(=O)(=O)N1CCc2c(sc3ncnc(Nc4cc5cn[nH]c5cc4Cl)c23)C1 [Example 49, N-(6-Chloro-1H-indazol-5-yl)-7-(methylsulfonyl)-5,6,7,8-tetrahydropyrido[4′,3′:4,5]thieno[2,3-d]pyrimidin-4-amine] | 0.125 µM
CC(C)C(=O)N1CCc2c(sc3ncnc(Nc4cc5cn[nH]c5cn4)c23)C1 [Example 20, 2-Methyl-1-[4-(1H-pyrazolo[3,4-c]pyridin-5-ylamino)-5,8-dihydropyrido[4′,3′:4,5]thieno[2,3-d]pyrimidin-7(6H)-yl]propan-1-one] | 0.028 µM
C[C@@H]1CN(C(=O)N2CCc3c(sc4ncnc(Nc5cc6cn[nH]c6cn5)c34)C2)C[C@H](C)O1 [Example 34, [(2R,6S)-2,6-Dimethylmorpholin-4-yl][4-(1H-pyrazolo[3,4-c]pyridin-5-ylamino)-5,8-dihydropyrido[4′,3′:4,5]thieno[2,3-d]pyrimidin-7(6H)-yl]methanone] | 0.07 µM

Results, then the molecule that gave them:

IC50 | SMILES
0.01 µM | COc1cc2[nH]ncc2cc1Nc1ncnc2sc3c(c12)CCN(CCN1CCCC1=O)C3 [Example 85, 1-(2-{4-[(6-Methoxy-1H-indazol-5-yl)amino]-5,8-dihydropyrido[4′,3′:4,5]thieno[2,3-d]pyrimidin-7(6H)-yl}ethyl)pyrrolidin-2-one]
0.071 µM | CC(C)C(=O)N1CCc2c(sc3ncnc(Nc4cc5cn[nH]c5cc4Cl)c23)C1 [Example 56, 1-{4-[(6-Chloro-1H-indazol-5-yl)amino]-5,8-dihydropyrido[4′,3′:4,5]thieno[2,3-d]pyrimidin-7(6H)-yl}-2-methylpropan-1-one]
0.012 µM | COc1cc2[nH]ncc2cc1Nc1ncnc2sc3c(c12)CCN(CCCN1CCCC1=O)C3 [Example 86, 1-(3-{4-[(6-Methoxy-1H-indazol-5-yl)amino]-5,8-dihydropyrido[4′,3′:4,5]thieno[2,3-d]pyrimidin-7(6H)-yl}propyl)pyrrolidin-2-one]
0.016 µM | COc1cc2[nH]ncc2cc1Nc1ncnc2sc3c(c12)CCN(CCCN1CCOCC1=O)C3 [Example 87, 4-(3-{4-[(6-Methoxy-1H-indazol-5-yl)amino]-5,8-dihydropyrido[4′,3′:4,5]thieno[2,3-d]pyrimidin-7(6H)-yl}propyl)morpholin-3-one]
0.017 µM | COc1cc2[nH]ncc2cc1Nc1ncnc2sc3c(c12)CCN(Cc1ncon1)C3 [Example 80, N-(6-Methoxy-1H-indazol-5-yl)-7-(1,2,4-oxadiazol-3-ylmethyl)-5,6,7,8-tetrahydropyrido[4′,3′:4,5]thieno[2,3-d]pyrimidin-4-amine]
0.013 µM | COc1cc2[nH]ncc2cc1Nc1ncnc2sc3c(c12)CCNC3 [Example 8, N-(6-Methoxy-1H-indazol-5-yl)-5,6,7,8-tetrahydropyrido[4′,3′:4,5]thieno[2,3-d]pyrimidin-4-amine]
1.02 µM | CCOCCN(C)C(=O)N1CCc2c(sc3ncnc(Nc4cc5cn[nH]c5cc4OC)c23)C1 [Example 78, N-(2-Ethoxyethyl)-4-[(6-methoxy-1H-indazol-5-yl)amino]-N-methyl-5,8-dihydropyrido[4′,3′:4,5]thieno[2,3-d]pyrimidine-7(6H)-carboxamide]
0.009 µM | COc1cc2[nH]ncc2cc1Nc1ncnc2sc3c(c12)CCN(C(=O)C1CCN(C)CC1)C3 [Example 68, {4-[(6-Methoxy-1H-indazol-5-yl)amino]-5,8-dihydropyrido[4′,3′:4,5]thieno[2,3-d]pyrimidin-7(6H)-yl}(1-methylpiperidin-4-yl)methanone]
0.007 µM | COc1cc2[nH]ncc2cc1Nc1ncnc2sc3c(c12)CCN(C(=O)c1cccn1C)C3 [Example 73, {4-[(6-Methoxy-1H-indazol-5-yl)amino]-5,8-dihydropyrido[4′,3′:4,5]thieno[2,3-d]pyrimidin-7(6H)-yl}(1-methyl-1H-pyrrol-2-yl)methanone]
0.004 µM | COc1cc2[nH]ncc2cc1Nc1ncnc2sc3c(c12)CCN(C(=O)N1[C@H](C)COC[C@H]1C)C3 [Example 93, [(3R,5R)-3,5-Dimethylmorpholin-4-yl]{4-[(6-methoxy-1H-indazol-5-yl)amino]-5,8-dihydropyrido[4′,3′:4,5]thieno[2,3-d]pyrimidin-7(6H)-yl}methanone]
0.031 µM | CC(C)(C)OC(=O)N1CCc2c(sc3ncnc(Nc4cc5cn[nH]c5cc4Br)c23)C1 [Example 25, tert-Butyl 4-[(6-bromo-1H-indazol-5-yl)amino]-5,8-dihydropyrido[4′,3′:4,5]thieno[2,3-d]pyrimidine-7(6H)-carboxylate]
0.011 µM | COc1cc2[nH]ncc2cc1Nc1ncnc2sc3c(c12)CCN(C(=O)c1ccn(C)n1)C3 [Example 103, {4-[(6-Methoxy-1H-indazol-5-yl)amino]-5,8-dihydropyrido[4′,3′:4,5]thieno[2,3-d]pyrimidin-7(6H)-yl}(1-methyl-1H-pyrazol-3-yl)methanone]

Reference: patent US20170107229A1, “SUBSTITUTED TETRAHYDROPYRIDOTHIENOPYRIMIDINES” (BAYER PHARMA AKTIENGESELLSCHAFT, priority 2014, published 2017)
